Measurements from US20240041047A1, “ENHANCED ANTIMICROBIAL EFFICACY (SYNERGY) OF SILVER AND COPPER COMPOUNDS AND MEDICAL USE OF THEIR COMBINATIONS” (Nanordica Medical OÜ, priority 2021, published 2024).

Legend:
[1] = system: Gram-negative and Gram-positive bacteria commonly colonizing wounds; assay: Antibacterial synergy K(Syn) of Ag and Cu compounds across bacterial strains (FIG. 3, FIG. 5); assay type: cell-based
Procedure: FIGS. 3A and 3B show the synergistic effect of CuO NPs and CuSO4 with Ag NPs (A) or AgNO3 (B) to a range of Gram-negative and Gram-positive bacteria commonly colonizing wounds. Bacterial suspension was incubated with Ag NPs, CuO NPs, respective ions or their combinations for 24 h, plated on agarized broth, and MBC was determined.
In order to quantify and compare the synergistic effect between different Ag and Cu compounds and among various bacterial strains, we introduced the term “Coefficient of antimicrobial synergy”, K(Syn), showing the antimicrobial efficiency of Ag compound and Cu compound combinations (mix) compared to the sum of the MBC values of individual compounds and calculated as follows: […]
In order to quantify and compare the synergistic effect between different Ag NPs and Copper compounds among various bacterial strains, we introduced the term “Coefficient of antibacterial synergy”, K(Syn), showing the antimicrobial efficiency of Ag- and copper compound combinations (mix) compared to the sum of the MBC values of individual Ag- and Cu compounds and calculated as follows: […]
Bacterial suspensions were incubated with Ag NPs, CuO NPs, respective ions or their combinations for 24 h, plated on agarized broth, and MBC was determined. […]

[2] = system: E. faecalis ATCC 29212 (G+); assay: MBC of Ag NPs, Cu compounds and combinations, 24 h incubation, plated on agarized broth; assay type: cell-based, Enterococcus faecalis
E. coli ESBL (G−) = assay: as above; assay type: cell-based, Escherichia coli
E. coli K-12 (G−) = assay: as above; assay type: cell-based, Escherichia coli
[3] = system: S. dysgalacticae DSM 23147 (G+); assay: as above; assay type: cell-based
[4] = system: S. aureus ATCC 25923 (G+); assay: as above; assay type: cell-based, Staphylococcus aureus
P. aeruginosa PAO1 (G−) = assay: as above; assay type: cell-based, Pseudomonas aeruginosa

| Compound | synergistic effect with Cu compounds compared with Ag NPs ([1]; ionic silver used instead of Ag NPs (FIG. 3B)) | K (Syn) ([2]; E. faecalis ATCC 29212, Cu compound + Ag NPs) | MBC (CuX) in combination ([2]; E. faecalis ATCC 29212, Cu compound in combination with Ag NPs) | MBC alone ([2]; E. faecalis ATCC 29212, compound alone) | K (Syn) (E. coli ESBL (G−); Cu compound + Ag NPs) | MBC (CuX) in combination (E. coli ESBL (G−); Cu compound in combination with Ag NPs) | MBC alone (E. coli ESBL (G−); compound alone) | K (Syn) (E. coli K-12 (G−); E. coli K-12, Cu compound + Ag NPs) | MBC (CuX) in combination (E. coli K-12 (G−); E. coli K-12, Cu compound in combination with Ag NPs) | MBC alone (E. coli K-12 (G−); E. coli K-12, compound alone) | K (Syn) ([3]; S. dysgalacticae DSM 23147, Cu compound + Ag NPs) | MBC (CuX) in combination ([3]; S. dysgalacticae DSM 23147, Cu compound in combination with Ag NPs) | MBC alone ([3]; S. dysgalacticae DSM 23147, compound alone) | synergy with Ag NPs, K(Syn), ranking among Cu compounds ([1]; all tested bacterial strains (FIG. 3A)) | K (Syn) ([4]; S. aureus ATCC 25923, Cu compound + Ag NPs) | MBC (CuX) in combination ([4]; S. aureus ATCC 25923, Cu compound in combination with Ag NPs) | MBC alone ([4]; S. aureus ATCC 25923, compound alone) | K (Syn) (P. aeruginosa PAO1 (G−); P. aeruginosa PAO1, Cu compound + Ag NPs) | MBC (CuX) in combination (P. aeruginosa PAO1 (G−); P. aeruginosa PAO1, Cu compound in combination with Ag NPs) | MBC alone (P. aeruginosa PAO1 (G−); P. aeruginosa PAO1, compound alone) |
| --- | --- | --- | --- | --- | --- | --- | --- | --- | --- | --- | --- | --- | --- | --- | --- | --- | --- | --- | --- | --- |
| O=[N+]([O-])[O-].[Ag+] [AgNO3, reference compound] | considerably lower | – | – | – | – | – | – | – | – | – | – | – | – | – | – | – | – | – | – | – |
| O=S(=O)([O-])[O-].[Cu+2] [CuSO4] | – | 4.254 ± 0.977 | 20.83 ± 7.22 µg/mL | 200 ± 0 µg/mL | 4.727 ± 0.63 | 25 ± 0 µg/mL | 200 ± 0 µg/mL | 5.055 ± 0.383 | 22.5 ± 16.3 µg/mL | 217.6 ± 72.8 µg/mL | 3.909 ± 0.832 | 12.5 ± 0 µg/mL | 133.3 ± 57.7 µg/mL | highest | 3.659 ± 1.083 | 16.25 ± 8.39 µg/mL | 90 ± 22.36 µg/mL | 2.783 ± 0.687 | 20 ± 6.85 µg/mL | 720 ± 178.9 µg/mL |
